From patent publication EP4585599A1, “NITROGEN-CONTAINING FUSED RING COMPOUND, INTERMEDIATE THEREOF, PREPARATION METHOD THEREFOR AND USE THEREOF” (Hangzhou Synrx Therapeutics Biomedical Technology Co., Ltd., priority 2022, dated 2024) come the findings set out here.

One data set is described as follows: cells. The note with it: Homo sapiens, DLD-1, 240 h.
A further data set is described as follows: Solubility assay. To be noted: pH 7.4, aqueous buffer, kinetic from dmso stock; for solubility at 2 h: phosphate buffer.
The nature of another data set: in vitro. To be noted: mouse, microsomes, pH 7.4.
For data set [1] the following is noted: read-out: Cell viability assay IC50.
The nature of data set [2]: Mouse PK assay after oral administration. To be noted: for MRT / bioavailability / half-life: mouse, po; for MRT / bioavailability / half-life / Area under curve (0-t; hr * ng/mL) / Peak concentration: plasma; for Time to peak / Area under curve (0-t; hr * ng/mL) / Peak concentration: mice, oral.
Method: The objective of this experiment was to study the pharmacokinetics of the test compound in ICR mice (male, 18-22 g, 4-6 weeks old, Beijing Vital River Laboratory Animal Technology Co., Ltd.) after oral administration. The specific experimental procedures were as follows: • 1) The compound was dissolved in 5% DMSO + 40% PEG + 20% (10% TPGS) in water + 35% water at a concentration of 0.5 mg/mL, and then administered orally (5 mL/Kg); and • 2) Blood samples were collected, with 0.03 mL collected at 0.25 h, 0.5 h, 1 h, 2 h, 4 h, 8 h, and 24 h, and EDTA-K2 was added. […] The blood was centrifuged for 5 min at 4000 g in a centrifuge at 4°C to collect plasma. Plasma samples were aliquoted into clean polyethylene microcentrifuge tubes and then stored in a freezer at -75 ± 15°C before analysis; and • 3) Samples were analyzed, and the concentration of the compound in each plasma sample was analyzed by LC-MS/MS. For plasma measurements, pharmacokinetic parameters were calculated using WinNonlin (PhoenixTM, version 8.3) or other similar software.
Data set [3] deals with T1, helicase domain of the Pol θ protein (Homo sapiens, UniProt O75417).
T1 construct: The helicase domain of the Pol θ protein was purified from insect protein expression system; made in house; host or cells: insect protein expression system
T1 sequence (O75417 102-554 limits assumed): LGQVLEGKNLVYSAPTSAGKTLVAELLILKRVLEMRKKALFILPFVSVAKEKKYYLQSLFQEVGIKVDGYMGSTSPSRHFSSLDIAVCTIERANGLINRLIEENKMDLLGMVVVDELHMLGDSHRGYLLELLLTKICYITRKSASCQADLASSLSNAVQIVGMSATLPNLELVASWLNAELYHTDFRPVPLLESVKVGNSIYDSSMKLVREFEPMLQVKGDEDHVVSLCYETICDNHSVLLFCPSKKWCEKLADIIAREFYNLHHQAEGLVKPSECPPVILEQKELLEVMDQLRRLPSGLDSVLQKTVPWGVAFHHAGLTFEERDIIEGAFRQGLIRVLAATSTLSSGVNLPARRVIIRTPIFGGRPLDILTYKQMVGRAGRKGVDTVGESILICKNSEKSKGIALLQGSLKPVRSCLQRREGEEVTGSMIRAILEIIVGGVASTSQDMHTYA
Nature of the data set: Biochemical Activity Assay (ADP Glo Assay) of Pol θ inhibitor, ATPase activity. For orientation: ADP-Glo turns the ADP formed in a reaction into a luminescent signal.

Data set [4] can be described thus: Metabolic stability of mouse liver microsome assay. To be noted: liver microsomes, pH 7.4.
Method: (§1) a) Phosphate buffer solution (PBS): 100 mM, pH=7.4±0.1.
(§2) 73.21 g of dipotassium phosphate trihydrate K2HPO4·3H2O (MW=228.22) and 10.78 g of potassium dihydrogen phosphate KH2PO4 (MW=136.09) were dissolved in 4000 mL of pure water, with pH adjusted to 7.4 ± 0.1 using phosphoric acid or potassium hydroxide.
(§3) b) Microsome working solution: 1.0 mg/mL.
(§4) The purchased mouse liver microsomes (IPHASE, Cat. No.: 0121E1.01, Lot. No.: 22F001) were of 20 mg/mL (10 mg, 0.5 mL), with 225 µL added to 4275 µL of PBS solution to prepare 1.0 mg/mL microsome working solution.
(§5) (Note whether the precipitation occurred) • III, 200 µL of the 40 mM NADPH stock solution, 2.0 mL of the 12 mM magnesium chloride stock solution, and 1.80 mL of the PBS solution were used to prepare the working solution of the NADPH regeneration system, containing the 2 mM NADPH solution and the 6 mM magnesium chloride mixture.
(§6) d) Stop solution: containing 200 ng/mL tolbutamide acetonitrile solution. • I, 6.006 mg of tolbutamide (MV=270.35, 99.9%) solids were weighed, and 30 mL of acetonitrile was added to prepare the 200 µg/mL of tolbutamide stock solution. • II, 500 mL of acetonitrile was added to 500 µL of the 200 µg/mL tolbutamide stock solution to obtain the tolbutamide acetonitrile solution with a concentration of 200 ng/mL.
(§7) e) Test sample/reference working solution: 100 µM test sample/reference working solution • I, 1 mL of 1.0 mg/mL testosterone (MV=288.42) solution was purchased, and 155.8 µL of ACN was added to prepare a testosterone stock solution with a concentration of 3 mM. • II, 1450 µL of acetonitrile was added to 50 µL of the 3 mM testosterone stock solution to prepare the 100 µM testosterone working solution. • III, 6.98 mg of propafenone hydrochloride was weighed, and 1.8433 mL of acetonitrile was added to dissolve the propafenone hydrochloride; and 5.67 mg of diclofenac sodium was weighed, and 1.783 mL of acetonitrile was added to dissolve the diclofenac sodium. 10 mM propafenone stock solution and 10 mM diclofenac stock solution were prepared respectively. • IV, 10 µL of the propafenone stock solution and 10 mL of the diclofenac stock solution were each added with 990 µL of acetonitrile to prepare 100 µM propafenone working solution and 100 µM diclofenac working solutions.
(§8) • a) 8 incubation plates were prepared, named T0, T5, T15, T30, T45, T60, Blank60 and NCF60, respectively. • b) 100 µL of microsome working solution was added to each of T0, T5, T15, T30, T45, T60, Blank60 and NCF60; 2 µL of the test (reference) working solution was added to each of T0, T5, T15, T30, T45, T60 and NCF60; and 2 µL of acetonitrile was added to Blank60. • c) T5, T15, T30, T45, T60, and Blank60 were pre-incubated in a 37°C water bath for 10 minutes. • d) 600 µL of the stop solution was added to the sample T0 to stop the reaction; and 98 µL of phosphate buffer solution (PBS) was added to NCF60, and NCF60 samples without the NADPH regeneration system were taken as negative control. • e) 98 µL of the working solution of the NADPH regeneration system was supplemented to the sample T0 that is stopped in the previous step; and after pre-incubation, 98 µL of the working solution of the NADPH regeneration system was added to each of T5, T15, T30, T45, T60, and Blank60 to initiate the reaction.
The conditions of data set [5]: mouse, microsomes.
Method: as §1, §2, §3, §4, §5, §6, §7, §8
[6] abbreviates: read-out: Cell viability assay IC50 (nM).
[7] abbreviates: ADP-Glo assay, ATPase activity of Pol θ helicase domain, ssDNA substrate; read-out: Biochemical assay IC50.
The mark [8] stands for this setting: read-out: Cell viability assay IC50 (nM), CTG assay, CellTiter Glo, read on Day 10, cell line not given.

In brackets after ≈: the same amount, converted by molar mass. Like-named read-outs stand apart in the source and are kept apart here.

Method for Solubility assay: 1) Prepare 0.1 M Na2PO4 buffer (pH 7.4): 11 g of Na2HPO4 (FW: 141.96) and 3.5 g of NaH2PO4_2H2O (FW: 156.03) were added to 1L of Mili-Q water, with pH adjusted to 7.4 using phosphoric acid or sodium hydroxide. 2) 10 µL of the compound to be tested (concentration: 10 mM in DMSO) was added to 990 µL of Na2PO4 buffer (final DMSO concentration: 1%) prepared in Step 1). 3) The sample tube was shaken at room temperature for 2 hours (1000 rpm/min). 4) Prepare the calibration curve: a) Prepare 300 µM spiking solution (SS): 6 µL (10 mM in DMSO) of the stock solution of the compound to be tested was added to 194 µL of MeOH/ACN (4:1); and b) Draw the standard curve.
5) The samples were centrifuged (10 min, 12,000 rpm) to precipitate insoluble particles. The supernatant was filtered with a 0.22 µm filter membrane, and then transferred to a new centrifuge tube. 6) The supernatant was diluted 10-fold with 100 mM buffer. The supernatant (10 µL) was added to the buffer (100 mM, 90 µL) and diluted 10-fold. 7) The sample was prepared under LC-MS/MS (API 4000) detection.
10 µL of the sample (10-fold dilution) and a standard curve sample were added to 400 µL of (MeOH: ACN=1:1) solution, and detected on the instrument, and the solubility value was calculated according to the standard curve.
Method for in vitro: as §1, §2, §3, §4, §5, §6, §7, §8

Usually IC50 stands for the concentration needed to halve the response being measured. In general, solubility refers to the concentration that dissolves in the medium under given conditions. Usually half-life stands for the time in which the quantity being followed falls by half. One may read the MRT as the average time that molecules of a dose stay in the body. For the molecule `COc1cnc(Cl)cc1-c1cc(C)ncc1C(=O)Nc1nc2ccc(N3CCC(O)CC3)nc2s1` [Example 46], the IC50 in the data set “cells” (setting [6]) was below 100 nM. The molecule further came in with a solubility at 2 h in the data set “Solubility assay” of 61.5 µM (≈ 31.4 µg/mL). Moreover, in “in vitro”, the half-life at 1 µM amounted to 7.9 h. Also, in data set [1], the IC50 was determined as 60.7 nM. Further, in data set [2] (male, ICR, 25 mg/kg), the MRT was 4.13 h, the bioavailability came to 127% and the half-life was 1.59 h. Moreover, in data set [2] (administration dose 25 mg/kg), the “Time to peak” value was 2.0 h, the “Area under curve (0-t; hr * ng/mL)” value came to 46.041 µg·h/mL and the “Peak concentration” value was 7217 ng/mL. For the same molecule, the IC50 in data set [3] (setting [7]) amounted to 8.31 nM. For the same molecule, the concentration for half-maximal inhibition (IC50) in data set [3] (ADP-Glo, ssDNA substrate, 60 min at room temperature; read-out: Biochemical assay IC50) is below 50 nM.

As for `COc1cnc(Cl)cc1-c1cc(C)ncc1C(=O)Nc1nc2cnc(-c3c(C)noc3C)cc2s1` [Example 155], in the data set “cells” (setting [6]), the IC50 was found to be 19.2 nM. In addition, the solubility in the data set “Solubility assay” (0.1 m sodium phosphate buffer) stood at 7.81 µM (≈ 3.96 µg/mL). In data set [4], this molecule had a half-life at 1 µM of 11.6 h. Moreover, in data set [2] (administration dose 30 mg/kg), the “Time to peak” value came out at 1.0 h, the “Area under curve (0-t; hr * ng/mL)” value was determined as 321.917 µg·h/mL and the “Peak concentration” value was 43083 ng/mL. Besides, in data set [2] (30 mg/kg), the MRT is 4.56 h and the half-life is 2.26 h. For the same molecule, the IC50 in data set [3] (read-out: Biochemical assay IC50; ADP-Glo assay, ATPase activity of Pol θ helicase domain, ssDNA substrate) was found to be 5.75 nM.

With `COc1cnc(Cl)c(F)c1-c1cc(C)ncc1C(=O)Nc1nc2cnc(-c3c(C)nnn3C)cc2s1` [Example 172], the concentration in solution in the data set “Solubility assay” (solubility at 2 h) came to 63.7 µM (≈ 33.4 µg/mL). Also, in data set [2] (male, ICR, 30 mg/kg), the mean residence time MRT was determined as 5.91 h, the bioavailability was determined as 206% and the half-life was 5.1 h. In data set [2] (administration dose 30 mg/kg), the “Time to peak” value came out at 0.25 h, the “Area under curve (0-t; hr * ng/mL)” value was found to be 429.051 µg·h/mL and the “Peak concentration” value came out at 43555 ng/mL. In addition, the “Half-life (T1/2, min)” value in data set [5] is listed as “∞”. In addition, the IC50 in data set [3] (setting [7]) is 2.84 nM.

`COc1cnc(Cl)cc1-c1cc(C)ncc1C(=O)Nc1nc2cnc(-c3c(C)nnn3C)cc2s1` [Example 175, 2'-chloro-N-(6-(1,4-dimethyl-1H-1,2,3-triazol-5-yl)thiazolo[4,5-c]pyridin-2-yl)-5'-methoxy-6-methyl-[4,4'-bipyridine]-3-carboxamide]: the IC50 in “cells” (setting [8]) came out at 10 nM. In addition, in the data set “Solubility assay”, the solubility at 2 h came out at 4.61 µM (≈ 2.34 µg/mL). For the same molecule, the half-life at 1 µM in “in vitro” turned out to be 10.5 h. Also, in data set [2] (male, ICR, 30 mg/kg), the mean residence time MRT came to 4.58 h, the bioavailability turned out to be 151% and the half-life is 2.68 h. In data set [2] (administration dose 30 mg/kg), the “Time to peak” value was 1.67 h, the “Area under curve (0-t; hr * ng/mL)” value was 293.209 µg·h/mL and the “Peak concentration” value was 42933 ng/mL. Further, the 50% inhibitory concentration (IC50) in data set [3] (setting [7]) amounted to 1.84 nM.

In the case of `COc1cnc(C(F)F)cc1-c1cc(C)ncc1C(=O)Nc1nc2cnc(-c3c(C)nnn3C)cc2s1` [Example 180, 2'-(difluoromethyl)-N-(6-(1,4-dimethyl-1H-1,2,3-triazol-5-yl)thiazolo[4,5-c]pyridin-2-yl) -5'-methoxy-6-methyl-[4,4'-bipyridine]-3-carboxamide], in the data set “cells” (setting [8]), the IC50 is 5.62 nM. This molecule also had a solubility at 2 h in the data set “Solubility assay” of 91.1 µM (≈ 47.6 µg/mL). In data set [2] (male, ICR, 30 mg/kg), this molecule gave an MRT of 2.88 h and a half-life of 1.75 h. In data set [2] (administration dose 30 mg/kg), the “Time to peak” value came out at 1.08 h, the “Area under curve (0-t; hr * ng/mL)” value worked out at 176.788 µg·h/mL and the “Peak concentration” value worked out at 44133 ng/mL. The “Half-life (T1/2, min)” value in data set [5] is “∞”. Moreover, the IC50 in data set [3] (setting [7]) is 1.63 nM.

For the molecule `COc1cnc(C(F)F)cc1-c1cc(C)ncc1C(=O)Nc1nc2cnc(-c3c(C)noc3C)cc2s1` [Example 207], the half-inhibitory concentration (IC50) in “cells” (setting [8]) was 8.57 nM. The same molecule registered a solubility at 2 h in “Solubility assay” of 58.7 µM (≈ 30.7 µg/mL). This molecule gave a half-life at 1 µM in the data set “in vitro” of 14.4 h. In addition, in data set [2] (male, ICR, 30 mg/kg), the MRT was found to be 5.13 h, the bioavailability is 311% and the half-life is 1.97 h. For the same molecule, in data set [2] (administration dose 30 mg/kg), the “Time to peak” value turned out to be 1.67 h, the “Area under curve (0-t; hr * ng/mL)” value was found to be 581.387 µg·h/mL and the “Peak concentration” value was determined as 52444 ng/mL. Further, the IC50 in data set [3] (setting [7]) is 3.41 nM.

In the case of `COc1cnc(Cl)cc1-c1cc(C)ncc1C(=O)Nc1nc2cnc(-c3c(C)nnn3C)c(F)c2s1` [Example 216], the IC50 in the data set “cells” (setting [8]) is below 1.52 nM. Further, in the data set “Solubility assay”, the concentration in solution (solubility at 2 h) came to 61.8 µM (≈ 32.4 µg/mL). In the data set “in vitro”, this molecule showed a half-life at 1 µM of 28.9 h. For the same molecule, in data set [2] (male, ICR, 30 mg/kg), the MRT is 3.38 h, the bioavailability is 178% and the half-life was 2.2 h. In addition, in data set [2] (administration dose 30 mg/kg), the “Time to peak” value was 0.75 h, the “Area under curve (0-t; hr * ng/mL)” value turned out to be 385.297 µg·h/mL and the “Peak concentration” value was determined as 89917 ng/mL. Besides, the half-maximal inhibitory concentration (IC50) in data set [3] (setting [7]) came to 3.31 nM.

For the molecule `COc1cnc(Cl)c(F)c1-c1cc(C)ncc1C(=O)Nc1nc2cnc(-c3c(C)nnn3C)c(F)c2s1` [Example 217], in the data set “cells” (setting [8]), the IC50 is below 1.52 nM. For the same molecule, the solubility at 2 h in the data set “Solubility assay” stood at 82.6 µM (≈ 44.8 µg/mL). For the same molecule, in data set [2] (male, ICR, 30 mg/kg), the MRT came out at 3.95 h, the bioavailability came out at 259% and the half-life was 2.16 h. In addition, in data set [2] (administration dose 30 mg/kg), the “Time to peak” value worked out at 0.67 h, the “Area under curve (0-t; hr * ng/mL)” value was found to be 852.39 µg·h/mL and the “Peak concentration” value came to 156130 ng/mL. Besides, the “Half-life (T1/2, min)” value in data set [5] is recorded as “∞”. In addition, the IC50 in data set [3] (setting [7]) was determined as 3.63 nM.
